Measured values: patent publication US20220009894A1, “1,2,3,4-TETRAHYDROQUINOXALINE DERIVATIVE, PREPARATION METHOD THEREFOR AND APPLICATION THEREOF” (Abbisko Therapeutics Co., Ltd., priority 2019, published 2022)

Assays:
RORγt-LBD = molecular target: T1, RORγt-LBD (Homo sapiens, UniProt P51449); assay: Time-resolved fluorescence resonance energy-transfer assay (TR-FRET), co-activator peptide recruitment; type: biochemical; design: TR-FRET Biochemical Amax: unit not given here; conditions: for EC50: His-RORγt-LBD 30 nM, SRC peptide 500 nM, agonistic activity, averages of one or more measurements, read-out: TR-FRET Biochemical EC50/; for TR-FRET Biochemical Amax: upper activation limit, His-RORγt-LBD, SRC peptide
T1 sequence (P51449 269-508 limits assumed): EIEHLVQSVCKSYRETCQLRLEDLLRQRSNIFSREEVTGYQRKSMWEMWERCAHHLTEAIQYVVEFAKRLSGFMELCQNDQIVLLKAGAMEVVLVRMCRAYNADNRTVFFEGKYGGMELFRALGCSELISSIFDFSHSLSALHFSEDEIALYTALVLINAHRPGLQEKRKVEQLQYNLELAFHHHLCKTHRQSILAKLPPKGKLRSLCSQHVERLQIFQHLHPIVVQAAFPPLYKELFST
In short: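 This agonist-mode TR-FRET used 30 nM His-tagged RORγt-LBD, 500 nM biotinylated SRC peptide, 0.25 nM Eu-anti-His and 5 nM APC-streptavidin in pH 7.0 Tris/KCl buffer with DTT and Triton. A 7-concentration, 5-fold compound series was incubated at 4 °C overnight plus 1 h at room temperature, and the 665/615 nm signal was read.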

RORγt = molecular target: T2, RORγt (Homo sapiens, UniProt P51449); assay: RORγt cellular reporter gene detection assay; type: cell-based; conditions: 24 hrs; for EC50: HEK 293 cells co-transfected with pFN26A-RORγt-LBD and pG14.35, in presence of antagonist Ursolic acid, top concentration 50 μM; for Cellular Reporter Assay Amax: upper activation limit, HEK 293 cells, in presence of antagonist Ursolic acid;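 as to Cellular Reporter Assay Amax: Ursolic Acid added as 5 µL of 20 µM medium per well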
T2 construct: The plasmid of pFN26A-RORγt-LBD and pG14.35 (Promega, Cat. No. E1370) were co-transfected into HEK 293 cells; expressed in transfected cells; host or cells: HEK 293 cells (Cat. No. GNHu18)
T2 sequence (P51449 269-508 limits assumed): T1 sequence (P51449 269-508 limits assumed)
In short: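 Compounds, titrated 4-fold from a 50 μM top concentration, were added with Ursolic acid to HEK293 cells carrying a RORγt-LBD plasmid and a reporter plasmid. After 24 h at 37° C, dual firefly/Renilla luciferase readout; four-parameter curves gave EC50 and maximal activation (Amax).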

Row | EC50 (RORγt-LBD) [µM] | TR-FRET Biochemical Amax (RORγt-LBD) | EC50 (RORγt) [µM] | Cellular Reporter Assay Amax (RORγt) | SMILES
1 | 0.00053 | 0.40 | 1.09 | 2.7 | CS(=O)(=O)N1CCN2c3ccc(-c4cc(F)cc(OC(F)F)c4)cc3N(S(=O)(=O)c3cc(C(F)(F)F)cnc3OCCO)C[C@@H]2C1 [Example 89, (S)-2-((3-((8-(3-(difluoromethoxy)-5-fluorophenyl)-3-(methylsulfonyl)-1,2,3,4,4a,5-hexahydro-6H-pyrazino[1,2-a]quinoxalin-6-yl)sulfonyl)-5-(trifluoromethyl)pyridin-2-yl)oxy)ethan-1-ol]
2 | 0.207 | 0.76 | 1.14 | 4.7 | CC(=O)N1CCN2c3ccc(/C=C/c4c(Cl)cccc4C(F)(F)F)cc3N(S(=O)(=O)c3cccc(OC(F)(F)F)c3)C[C@@H]2C1 [Example 84, (S,E)-1-(8-(2-chloro-6-(trifluoromethyl)styryl)-6-((3-(trifluoromethoxy)phenyl)sulfonyl)-1,2,4,4a,5,6-hexahydro-3H-pyrazino[1,2-a]quinoxalin-3-yl)ethan-1-one]
3 | 0.0649 | 1.07 | 0.157 | 5.7 | COC(=O)CC[C@H]1CN(S(=O)(=O)c2cccc(C(F)(F)F)c2)c2cc(/C=C(\C)c3c(F)cccc3Cl)ccc2N1C [Example 120, methyl (S,E)-3-(6-(2-(2-chloro-6-fluorophenyl)prop-1-en-1-yl)-1-methyl-4-((3-(trifluoromethyl)phenyl)sulfonyl)-1,2,3,4-tetrahydroquinoxalin-2-yl)propanoate]
4 | 0.0151 | 0.62 | 0.178 | 4.3 | C/C(=C\c1ccc2c(c1)N(S(=O)(=O)c1cccc(C(F)(F)F)c1)C[C@@H]1CN(S(C)(=O)=O)CCN21)c1c(F)cccc1Cl [Example 18, (S,E)-8-(2-(2-chloro-6-fluorophenyl)prop-1-en-1-yl)-3-(methylsulfonyl)-6-((3-(trifluoromethyl)phenyl)sulfonyl)-2,3,4,4a, 5,6-hexahydro-1H-pyrazino[1,2-a]quinoxaline]
5 | 0.0052 | 0.67 | 0.822 | 2.4 | N#CC1(N2CCN3c4ccc(/C=C/c5c(Cl)cccc5C(F)(F)F)cc4N(S(=O)(=O)c4cccc(C(F)(F)F)c4)C[C@@H]3C2)CCC1 [Example 78, (S,E)-1-(8-(2-chloro-6-(trifluoro-methyl)styryl)-6-((3-(trifluoro-methyl)phenyl)sulfonyl)-1,2,4,4a,5,6-hexahydro-3H-pyra-zino[1,2-a]quinoxalin-3-yl)cyclo-butane-1-carbonitrile]
6 | 0.086 | 0.69 | 0.469 | 3.0 | NC(=O)N1CCN2c3ccc(-c4cc(F)cc(OC(F)F)c4)cc3N(S(=O)(=O)c3cccc(C(F)(F)F)c3)C[C@@H]2C1 [Example 61, (S)-8-(3-(difluoromethoxy)-5-fluorophenyl)-6-((3-(trifluoro-methyl)phenyl)sulfonyl)-1,2,4,4a,5,6-hexahydro-3H-pyra-zino[1,2-a]quinoxaline-3-car-boxamide]
7 | 0.0434 | 0.65 | 0.301 | 5.4 | O=C(O)[C@H]1CCN2c3ccc(-c4cc(F)cc(OC(F)F)c4)cc3N(S(=O)(=O)c3cccc(C(F)(F)F)c3)C[C@@H]2C1 [Example 116, (6aS,8S)-3-(3-(difluoromethoxy)-5-fluorophenyl)-5-((3-(trifluoromethyl)phenyl)sulfonyl)-6,6a,7,8,9,10-hexahydro-5H-pyrido[1,2-a]quinoxaline-8-carboxylic acid]
8 | 0.00968 | 1.39 | 1.03 | 5.0 | CN1c2ccc(-c3cc(F)cc(OC(F)F)c3)cc2N(S(=O)(=O)c2cccc(C(F)(F)F)c2)C[C@@H]1CCC(=O)O [Example 5, (S)-3-(6-(3-(difluorome-thoxy)-5-fluorophenyl)-1-methyl-4-((3-(trifluorometh-yl)phenyl)sulfonyl)-1,2,3,4-tetrahydroquinoxalin-2-yl)propanoic acid]
9 | 0.0249 | 1.23 | 0.501 | 4.1 | O=S(=O)(c1cccc(C(F)(F)F)c1)N1C[C@@H]2CN(C[C@H](O)CO)CCN2c2ccc(/C=C/c3c(Cl)cccc3C(F)(F)F)cc21 [Example 36, (S)-3-((S)-8-((E)-2-chloro-6-(trifluoromethyl)styryl)-6-((3-(trifluaromethyl)phenyl)sulfonyl)-1,2,4,4a,5,6-hexahydro-3H-pyrazino[1,2-a]quinoxalin-3-yl)-propane-1,2-diol]
10 | 0.00813 | 0.64 | 0.676 | 6.3 | CC(C)OC(=O)OCOC(=O)CN1CCN2c3ccc(/C=C/c4c(Cl)cccc4C(F)(F)F)cc3N(S(=O)(=O)c3cccc(C(F)(F)F)c3)C[C@@H]2C1 [Example 50, ((isopropoxycarbonyl)oxy)methyl (S,E)-2-(8-(2-chloro-6-(trifluoromethyl)styryl)-6-((3-(trifluoromethyl)phenyl)sulfonyl)-1,2,4,4a,5,6-hexahydro-3H-pyrazino[1,2-a]quinoxalin-3-yl)acetate]
11 | 0.0108 | 0.93 | 0.599 | 4.3 | O=S(=O)(c1cccc(C(F)(F)F)c1)N1C[C@@H]2CN(C3COC3)CCN2c2ccc(/C=C/c3c(Cl)cccc3C(F)(F)F)cc21 [Example 32, (S,E)-8-(2-chloro-6-(trifluoromethyl)styryl)-3-(oxetan-3-yl)-6-((3-(trifluoromethyl)phenyl)sulfonyl)-2,3,4,4a,5,6-hexahydro-1H-pyrazino[1,2-a]quinoxaline]
12 | 0.0554 | 0.99 | 1.98 | 4.0 | C[C@]1(O)CCN2c3ccc(-c4cc(F)cc(OC(F)F)c4)cc3N(S(=O)(=O)c3cccc(C(F)(F)F)c3)C[C@@H]2C1 [Example 108, (6aS,8S)-3-(3-(difluoromethoxy)-5-fluorophenyl)-8-methyl-5-((3-(trifluoromethyl)phenyl)sulfo-nyl)-6,6a,7,8,9,10-hexa-hydro-5H-pyrido[1,2-a]quinoxalin-8-ol]
13 | 0.113 | 0.51 | 0.969 | 5.3 | C[C@]1(OCCC(=O)O)CCN2c3ccc(-c4cc(F)cc(OC(F)F)c4)cc3N(S(=O)(=O)c3cccc(C(F)(F)F)c3)C[C@@H]2C1 [Example 114, 3-(((6aS,8S)-3-(3-(difluoro-methoxy)-5-fluorophenyl)-8-methyl-5-((3-(trifluorometh-yl)phenyl)sulfonyl)-6,6a,7,8,9,10-hexahydro-5H-py-rido[1,2-a]quinoxalin-8-yl)oxy)propanoic acid]
14 | 0.0405 | 0.97 | 0.498 | 3.5 | C/C(=C\c1ccc2c(c1)N(S(=O)(=O)c1cccc(C(F)(F)F)c1)C[C@@H]1CN(C(C)(CO)CO)CCN21)c1c(F)cccc1Cl [Example 71, (S,E)-2-(8-(2-(2-chloro-6-fluorophenyl)prop-1-en-1-yl)-6-((3-(trifluoromethyl)phenyl)sulfonyl)-1,2,4,4a,5,6-hexahydro-3H-pyrazino[1,2-a]quinoxalin-3-yl)-2-methylpropane-1,3-diol]
15 | 0.848 | – | ≥ 50 | – | O=C(O)CN1CCN2c3ccc(-c4cc(F)cc(OC(F)F)c4)cc3N(S(=O)(=O)C3C=C(C(F)(F)F)C=NC3=O)C[C@@H]2C1 (stereo partly drawn) [Example 92, 2-((4aS)-8-(3-(difluoromethoxy)-5-fluorophenyl)-6-((2-oxo-5-(trifluoromethyl)-2,3-dihydropyridin-3-yl)sulfonyl)-1,2,4,4a,5,6-hexahydro-3H-pyrazino[1,2-a]quinoxalin-3-yl)acetic acid]
16 | 0.0219 | 0.71 | 0.149 | 2.8 | C[C@@]1(OCCC(=O)O)CCN2c3ccc(-c4cc(F)cc(OC(F)F)c4)cc3N(S(=O)(=O)c3cccc(C(F)(F)F)c3)C[C@@H]2C1 [Example 113, 3-(((6aS,8R)-3-(3-(difluoromethoxy)-5-fluorophenyl)-8-methy 1-5-((3-(trifluoromethyl)phenyl)sulfonyl)-6,6a,7,8,9,10-hexahydro-5H-pyrido[1,2-a]quinoxalin-8-yl)oxy)propanoic acid]
